Experimental data from patent publication US10053447B2, “Fluorescent compounds” (Pierce Biotechnology, Inc, priority 2010, dated 2018).

Columns and labels:
IMR90 cells = assay: Direct fluorescence labeling of cell surface proteins; type: cell-based, human; details: 6 μm, 3 μm, 1.5 μm, and 0.75 μm as printed; 30 min
Procedure: The inventive compounds and commercial dyes were evaluated in direct fluorescence labeling of cell surface proteins using the following protocol. DyLight 549-NHS, 550 Compound 1-NHS, and Whole Cell Stain Orange (Thermo Fisher Scientific) were reconstituted in DMF and diluted to 6 μM in Dulbecco's PBS (DPBS). A total of four 1:1 serial dilutions of the dyes were prepared in DPBS. Frozen IMR90 cells (human lung embryonic fibroblast) on a plate were thawed for 1 h at 37° C. The cell plates were washed two times with DPBS and incubated with dye dilutions for 30 min at room temperature protected from light. The cell plates were then washed three times with DPBS. The cell plates were incubated with 100 μl/well of 1 μg/ml Hoechst dye in DPBS. The cell plates were sealed and imaged using the Thermo Scientific ArrayScan VTI HCS Reader.
The inventive compounds and commercial dye were evaluated in direct fluorescence labeling of cell surface proteins. DyLight 649-NHS, 650 Compound 1-NHS, and Whole Cell Stain Orange (Thermo Fisher Scientific) were reconstituted in DMF and diluted to 6 μM in Dulbecco's PBS (DPBS). A total of four 1:1 serial dilutions of the dyes were prepared in DPBS. Frozen IMR90 cells (human lung embryonic fibroblast) on a plate were thawed for 1 h at 37° C. […] The cell plates were sealed and imaged using the Thermo Scientific ArrayScan VTI HCS Reader.

[1] = Spectral properties of the dyes compared with commercially available dyes; type: physicochemical; details: reactive ester form of the dye

Emission (Em) [1]: 572 nm
Excitation (Ex) [1]: 557 nm
ε [1]: 142,000 M−1cm−1
SMILES: COCCN1/C(=C/C=C/C2=[N+](CCCCCC(=O)ON3C(=O)CCC3=O)c3ccc(S(=O)(=O)[O-])cc3C2(C)CCCS(=O)(=O)O)C(C)(CCCS(=O)(=O)O)c2cc(S(=O)(=O)O)ccc21 (stereo not shown) [550 Compound 1-NHS]
Performance in direct fluorescence labeling of cell surface proteins (IMR90 cells): performed equivalently as DyLight 549-NHS
